# pIC50: −log10 of the molar value.
# Assays:
# Subcute Toxicity Test = assay type: in vivo, SD rats; settings: 100 mg/kg once daily for 14 days, male and female rats
# Protocol: The Subcute toxicity test was conducted as described in the following. SD rats (six each of male and female rats per group) were employed in the present test. The title compound (Preparation Example 1) was suspended in 0.5% methyl cellulose solution to be administered to the rats by a disposable feeding tube (manufactured by Fuchigami Kikai) once daily for 14 days. The dosage of the test samples was 100 mg/kg.
# Acute Toxicity Test = assay type: in vivo, SD rats
# Protocol: SD rats (3 rats per group) fasted overnight was employed in the present test. The title compound (Preparation Example 1) suspended in 1% methyl cellulose was administered to the rats. The test was conducted on the dosages of […]. […] It was indicted from the test result that the title compounds ensure the enhanced safety.
# CaCo-2 cells = test: Apoptosis Induction Test in CaCo-2 Cells; assay type: cell-based; settings: 24 hours, propidium iodide staining, fluorescence microscope
# Protocol: CaCo-2 cells were adjusted in 10% FBS/DMEM/NEAA to 1.0×10^5 cells/ml concentration and then pipetted into a 6 well plate in an amount of 3 ml/well. The cells were cultured under the conditions of at 37° C. in 5% CO2 atmosphere for 24 hours to allow the cell adhesion. Only the medium solution (0.1% ethanol) was exchanged in the control group, and the compound of the invention (Preparation Example 1) group was transferred to culture mediums containing the compound adjusted to each of the specified concentrations, then the cells were cultured under the condition of at 37° C. in 5% CO2 atmosphere for 24 hours. Then the culture medium and the adhesive cells separated of the adhesion by trypsin were collected and centrifuged at 1000 rpm for 5 minutes to remove the supernatant. The cells were washed with PBS(-) and then 20 μl of 90% ethanol/0.5% triton×100/10mM EDTA/10mM Tris-HCl (pH7.4) and 5 μl of propidium iodide (1 μg/ml) were added thereto to stain the nucleuses. A drop of the stained cell solution was placed on a preparation glass to be examined by a fluorescence microscope at B range.
# Human COX-2 = target: T1, Human COX-2 (Homo sapiens, UniProt P35354); test: Human COX-2 Inhibitory Activity Test (LPS-induced PGE2 in blood); assay type: cell-based
# T1 construct: endogenous in cells; host or cells: heparinised whole blood of a healthy human donor pretreated with aspirin, stimulated with LPS (own knowledge: COX-2 is induced in monocytes)
# T1 sequence (P35354 18-604): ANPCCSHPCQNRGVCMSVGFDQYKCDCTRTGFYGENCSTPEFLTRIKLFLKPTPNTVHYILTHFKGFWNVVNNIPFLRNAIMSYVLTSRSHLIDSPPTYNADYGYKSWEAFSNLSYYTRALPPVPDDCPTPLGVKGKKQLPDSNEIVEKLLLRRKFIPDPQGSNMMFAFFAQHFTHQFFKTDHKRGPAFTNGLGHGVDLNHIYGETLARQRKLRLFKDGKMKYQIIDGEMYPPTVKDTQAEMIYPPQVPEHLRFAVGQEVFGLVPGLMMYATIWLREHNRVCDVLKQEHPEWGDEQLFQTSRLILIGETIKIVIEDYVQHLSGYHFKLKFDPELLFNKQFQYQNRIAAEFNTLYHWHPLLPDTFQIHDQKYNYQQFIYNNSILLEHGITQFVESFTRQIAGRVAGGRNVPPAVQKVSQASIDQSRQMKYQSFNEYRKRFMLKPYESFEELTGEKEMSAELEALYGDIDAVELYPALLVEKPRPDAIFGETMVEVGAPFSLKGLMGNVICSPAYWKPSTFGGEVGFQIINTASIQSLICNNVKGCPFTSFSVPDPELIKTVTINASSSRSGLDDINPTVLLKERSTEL
# Protocol: COX-1 and COX-2 activities were measured according to the method of Patrignani et al. (J. Pharm. Exp. Ther. Vol. 271, 1705 (1994)).
# (2) COX-2 activity was measured in the following procedure. To blood collected from a healthy normal who had taken 330 mg of aspirin 48 hours before the blood collection in order to inhibit the COX-1 activity, 10 unit/ml of sodium heparin was added, and then pipetted into glass test tubes by 1 ml. 10 μg/ml of Lipopolysaccharide (LPS) was added thereto and the plasma obtained by the specified operation was stored at -40° C. until the measurement for the amount of prostaglandin E2 (PGE2). Test samples containing the test samples were treated in the same manner of operation as described above.
# (4) The measurement for the PGE2 content was conducted in the following procedure. In a part of 96 well plate coated with goat anti-mouse antibody, 2 wells were alloted respectively to a blank well, Non-specific Binding (NSB) well, Maximum Binding (B0) well, standard wells at seven concentrations of PGE2 (1000 pg/ml) in doubling dilution ranging from 1000-15.6 pg/ml. The rest of the wells were used for the sample measurement. EIA buffer was added to the NSB wells (100 μl) and to the B0 wells (50 μl), respectively. 50 μl of each of the standard dilution was added in an order from thinner to thicker concentrations. Each of the samples was added to the rest of the wells in an amount of 50 μl. Then, 50 μl of PGE2 tracer was added to each of the wells except for blank wells. Further, 50 μl PGE2 monoclonal antibody was added to each of the wells except for the NSB wells and blank wells, then the well plate was covered with a plastic film and the reaction continued at room temperature for 18 hours. When the reaction was terminated, the wells were washed 5 times with a wash buffer. 200 μl of Elman's reagent was added to each of the wells, and then the well plate was covered with a plastic film and developed for 60 minutes in a dark place. The absorbance at 405 nm was measured by an Immuno Reader (NJ-2000, manufactured by Nippon Intermed Co., Ltd.). From the measurement result, %B/B0 was calculated and, applying it to the approximation formula of Hill Plot, the concentration of the samples was determined to be 40 times concentration. The dilution was conducted with an EIA buffer throughout the Test Example 3.
smiles,measurement,setting,value
"Cc1cc(-c2ccc(F)cc2)c(-c2ccc(S(C)(=O)=O)cc2)[nH]1 [Preparation Example 1, 4-(4-fluorophenyl)-2-methyl-5-(4-methylsulfonylphenyl)-1H-pyrrole]",general symptoms and weight increase,Subcute Toxicity Test,neither of a change in the general symptoms nor an adverse affect on the weight increase was noted
same,death,"Acute Toxicity Test; 500/kg, 1000/kg, 2000/kg, observed for a week",no death was noted in the test
same,general symptoms after administration,"Acute Toxicity Test; rat, in vivo","an analgesic action was noted after the administration, and the rats recovered to the normal state in one hour"
same,weight and general symptoms after one week,"Acute Toxicity Test; rat, in vivo",the weight increased favorably and no abnormality was noted in the general symptoms
same,cell apoptosis,CaCo-2 cells,cell apoptosis caused by the compound of the invention was observed
same,pIC50,"Human COX-2; human blood, LPS, PGE2, IC50 from Hill Plot",6.02
same,COX-1/COX-2,Human COX-2; ratio of IC50 COX-1 to COX-2,683

# From patent publication US6294568A, “5-arylpyrrole derivatives” (priority 1997, dated 2001)
